Source: PubChem BioAssay AID256 (DTP/NCI, 2004)
Values joined by “and” are separate entries in the source; they are usually repeats but may differ in a detail not shown here. Equal entries are not always repeated. Inconclusive results and toxic doses are left out.

Test system: CD2F1 mice, L1210 leukemia ip, survival T/C
Assay: NCI In Vivo Anticancer Drug Screen. Data for tumor model L1210 Leukemia (intraperitoneal) in CD2F1 (CDF1) mice
Conditions: higher = longer survival
Method in brief: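 Implant tumor; dose compound or vehicle; measure endpoint in both groups; report treated divided by control.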

[1] = endpoint: mean survival time, dose: 100.0 mg/kg/injection, schedule: Q04DX003 (ip), vehicle: saline with Tween-80
[2] = endpoint: mean survival time, dose: 200.0 mg/kg/injection, schedule: Q04DX003 (ip), vehicle: saline with Tween-80
[3] = endpoint: mean survival time, dose: 400.0 mg/kg/injection, schedule: Q04DX003 (ip), vehicle: saline with Tween-80
[4] = endpoint: mean survival time, dose: 100.0 mg/kg/injection, schedule: Q04DX003 (ip), vehicle: saline
[5] = endpoint: mean survival time, dose: 200.0 mg/kg/injection, schedule: Q04DX003 (ip), vehicle: saline
[6] = endpoint: mean survival time, dose: 100.0 mg/kg/injection, schedule: Q01DX009 (ip), vehicle: saline with Tween-80
[7] = endpoint: mean survival time, dose: 100.0 mg/kg/injection, schedule: Q04DX002 (ip), vehicle: saline with Tween-80
[8] = endpoint: mean survival time, dose: 200.0 mg/kg/injection, schedule: Q04DX002 (ip), vehicle: saline with Tween-80
[9] = endpoint: mean survival time, dose: 100.0 mg/kg/injection, schedule: Q01DX001 (ip), vehicle: saline with Tween-80
[10] = endpoint: mean survival time, dose: 200.0 mg/kg/injection, schedule: Q01DX001 (ip), vehicle: saline with Tween-80

## Cn1cnc([N+](=O)[O-])c1S(=O)(=O)NCN1CCOCC1
endpoint: mean survival time, dose: 6.25 mg/kg/injection, schedule: Q01DX009 (ip), vehicle: Klucel (hydroxypropylcellulose) (HPC)
  T/C: 95 % of control
endpoint: mean survival time, dose: 12.5 mg/kg/injection, schedule: Q01DX009 (ip), vehicle: Klucel (hydroxypropylcellulose) (HPC)
  T/C: 118 % of control and 101 % of control
endpoint: mean survival time, dose: 25.0 mg/kg/injection, schedule: Q01DX009 (ip), vehicle: Klucel (hydroxypropylcellulose) (HPC)
  T/C: 101 % of control and 106 % of control
endpoint: mean survival time, dose: 50.0 mg/kg/injection, schedule: Q01DX009 (ip), vehicle: Klucel (hydroxypropylcellulose) (HPC)
  T/C: 95 % of control and 110 % of control
endpoint: mean survival time, dose: 100.0 mg/kg/injection, schedule: Q01DX009 (ip), vehicle: Klucel (hydroxypropylcellulose) (HPC)
  T/C: 96 % of control

## Cc1ccc(NC(=O)NO)cc1
endpoint: mean survival time, dose: 4.0 mg/kg/injection, schedule: Q03HX024 (ip), vehicle: saline
  T/C: 95 % of control
endpoint: mean survival time, dose: 8.0 mg/kg/injection, schedule: Q03HX024 (ip), vehicle: saline
  T/C: 93 % of control
endpoint: mean survival time, dose: 16.0 mg/kg/injection, schedule: Q03HX024 (ip), vehicle: saline
  T/C: 101 % of control
endpoint: mean survival time, dose: 32.0 mg/kg/injection, schedule: Q03HX024 (ip), vehicle: saline
  T/C: 87 % of control
endpoint: mean survival time, dose: 62.0 mg/kg/injection, schedule: Q03HX024 (ip), vehicle: saline with Tween-80
  T/C: 97 % of control
endpoint: mean survival time, dose: 64.0 mg/kg/injection, schedule: Q03HX024 (ip), vehicle: saline
  T/C: 93 % of control
endpoint: mean survival time, dose: 93.0 mg/kg/injection, schedule: Q03HX024 (ip), vehicle: saline with Tween-80
  T/C: 99 % of control

## C[C@H]1C[C@@H]2[C@H]([C@@H](O)C[C@@]3(C)[C@H]2CC[C@]3(O)C(=O)CF)[C@@]2(C)C=CC(=O)C=C12
endpoint: mean survival time, dose: 100.0 mg/kg/injection, schedule: Q01DX001 (sc), vehicle: steriod suspending solution
  T/C: 98 % of control
endpoint: mean survival time, dose: 200.0 mg/kg/injection, schedule: Q01DX001 (sc), vehicle: steriod suspending solution
  T/C: 101 % of control
endpoint: mean survival time, dose: 400.0 mg/kg/injection, schedule: Q01DX001 (sc), vehicle: steriod suspending solution
  T/C: 108 % of control

## Cc1cc(NC(=O)SCCOC(=O)COc2ccc(Cl)cc2)ccc1Cl
[1]
  T/C: 91 % of control
[2]
  T/C: 91 % of control
[3]
  T/C: 89 % of control

## CCCCCCCCCCC(C)c1ccc(S(=O)(=O)O)cc1 (stereo not given)
endpoint: mean survival time, dose: 50.0 mg/kg/injection, schedule: Q01DX009 (ip), vehicle: saline sonified
  T/C: 97 % of control
endpoint: mean survival time, dose: 100.0 mg/kg/injection, schedule: Q01DX009 (ip), vehicle: saline sonified
  T/C: 97 % of control
endpoint: mean survival time, dose: 200.0 mg/kg/injection, schedule: Q01DX009 (ip), vehicle: saline sonified
  T/C: 102 % of control

## CC(=O)C(C)(O)C(C)(C)C (stereo not given)
[4]
  T/C: 95 % of control
[5]
  T/C: 93 % of control
endpoint: mean survival time, dose: 400.0 mg/kg/injection, schedule: Q04DX003 (ip), vehicle: saline
  T/C: 98 % of control

## CCC1(C(=O)OC)CCC2C3CCC4CCCCC4(C)C3CCC21C (stereo not given)
endpoint: mean survival time, dose: 75.0 mg/kg/injection, schedule: Q04DX003 (sc), vehicle: steriod suspending solution
  T/C: 103 % of control
endpoint: mean survival time, dose: 150.0 mg/kg/injection, schedule: Q04DX003 (sc), vehicle: steriod suspending solution
  T/C: 101 % of control
endpoint: mean survival time, dose: 300.0 mg/kg/injection, schedule: Q04DX003 (sc), vehicle: steriod suspending solution
  T/C: 101 % of control

## N#CC(/C=C/c1ccccc1)Nc1ccccc1O (stereo not given)
[6]
  T/C: 93 % of control

## O=C(O)c1cc(F)ccc1Cl
[7]
  T/C: 97 % of control
[8]
  T/C: 86 % of control

## CC1CCCCC1NC(=O)Nc1ccccc1 (stereo not given)
[1]
  T/C: 94 % of control
[2]
  T/C: 92 % of control

## CCC(=O)Oc1ccc(/C=N/NC(N)=S)nc1
endpoint: mean survival time, dose: 100.0 mg/kg/injection, schedule: Q04DX002 (ip), vehicle: other
  T/C: 108 % of control
endpoint: mean survival time, dose: 178.0 mg/kg/injection, schedule: Q01DX001 (ip), vehicle: other
  T/C: 114 % of control
endpoint: mean survival time, dose: 178.0 mg/kg/injection, schedule: Q04DX003 (ip), vehicle: other
  T/C: 116 % of control
endpoint: mean survival time, dose: 200.0 mg/kg/injection, schedule: Q04DX002 (ip), vehicle: other
  T/C: 123 % of control
endpoint: mean survival time, dose: 266.0 mg/kg/injection, schedule: Q01DX001 (ip), vehicle: other
  T/C: 112 % of control
endpoint: mean survival time, dose: 266.0 mg/kg/injection, schedule: Q04DX003 (ip), vehicle: other
  T/C: 113 % of control
endpoint: mean survival time, dose: 400.0 mg/kg/injection, schedule: Q01DX001 (ip), vehicle: other
  T/C: 118 % of control
endpoint: mean survival time, dose: 400.0 mg/kg/injection, schedule: Q04DX003 (ip), vehicle: other
  T/C: 122 % of control
endpoint: mean survival time, dose: 600.0 mg/kg/injection, schedule: Q01DX001 (ip), vehicle: other
  T/C: 110 % of control
endpoint: mean survival time, dose: 600.0 mg/kg/injection, schedule: Q04DX003 (ip), vehicle: other
  T/C: 119 % of control
endpoint: mean survival time, dose: 900.0 mg/kg/injection, schedule: Q04DX003 (ip), vehicle: other
  T/C: 122 % of control

## C/C(CCC(CC(=O)O)C(C)C)=N\NC(N)=O (stereo not given)
[1]
  T/C: 97 % of control
[2]
  T/C: 97 % of control
[3]
  T/C: 103 % of control

## CCOC(=O)C(C)OC(=O)c1ccccc1 (stereo not given)
[6]
  T/C: 103 % of control
[1]
  T/C: 91 % of control
endpoint: mean survival time, dose: 200.0 mg/kg/injection, schedule: Q01DX009 (ip), vehicle: saline with Tween-80
  T/C: 105 % of control
[2]
  T/C: 105 % of control
endpoint: mean survival time, dose: 400.0 mg/kg/injection, schedule: Q01DX009 (ip), vehicle: saline with Tween-80
  T/C: 100 % of control
[3]
  T/C: 103 % of control

## CCCCC(OC(=O)c1ccc([N+](=O)[O-])cc1)C(C)[N+](=O)[O-] (stereo not given)
[1]
  T/C: 104 % of control
[2]
  T/C: 97 % of control
[3]
  T/C: 104 % of control

## CCN(Cc1cnc2nc(N)nc(N)c2n1)c1ccc(C(=O)NC(CCC(=O)O)C(=O)O)cc1 (stereo not given)
endpoint: mean survival time, dose: 2.5 mg/kg/injection, schedule: Q01DX009 (ip), vehicle: sodium bicarbonate
  T/C: 172 % of control
endpoint: mean survival time, dose: 5.0 mg/kg/injection, schedule: Q01DX009 (ip), vehicle: sodium bicarbonate
  T/C: 174 % of control
endpoint: mean survival time, dose: 6.25 mg/kg/injection, schedule: Q01DX009 (ip), vehicle: sodium bicarbonate
  T/C: 89 % of control
endpoint: mean survival time, dose: 10.0 mg/kg/injection, schedule: Q01DX009 (ip), vehicle: sodium bicarbonate
  T/C: 217 % of control
endpoint: mean survival time, dose: 12.5 mg/kg/injection, schedule: Q01DX009 (ip), vehicle: sodium bicarbonate
  T/C: 92 % of control

## CNC(=O)O/N=C1\CCCc2sccc21
[9]
  T/C: 110 % of control
[10]
  T/C: 110 % of control
endpoint: mean survival time, dose: 400.0 mg/kg/injection, schedule: Q01DX001 (ip), vehicle: saline with Tween-80
  T/C: 101 % of control

## CCOC(=O)C1=C(C)NC(=O)NN1C(=O)OCC
endpoint: mean survival time, dose: 12.5 mg/kg/injection, schedule: Q01DX009 (ip), vehicle: saline
  T/C: 94 % of control
endpoint: mean survival time, dose: 25.0 mg/kg/injection, schedule: Q01DX009 (ip), vehicle: saline
  T/C: 87 % of control
endpoint: mean survival time, dose: 50.0 mg/kg/injection, schedule: Q01DX009 (ip), vehicle: saline
  T/C: 94 % of control

## ClCCOCC1CO1 (stereo not given)
endpoint: mean survival time, dose: 150.0 mg/kg/injection, schedule: Q04DX003 (ip), vehicle: saline
  T/C: 101 % of control
endpoint: mean survival time, dose: 225.0 mg/kg/injection, schedule: Q04DX003 (ip), vehicle: saline
  T/C: 104 % of control
endpoint: mean survival time, dose: 335.0 mg/kg/injection, schedule: Q04DX003 (ip), vehicle: saline
  T/C: 96 % of control

## CC1CC(C)(C)N=C(CCCCCCl)O1 (stereo not given)
endpoint: mean survival time, dose: 50.0 mg/kg/injection, schedule: Q04DX002 (ip), vehicle: saline with Tween-80
  T/C: 101 % of control
[9]
  T/C: 103 % of control
[7]
  T/C: 108 % of control
[10]
  T/C: 105 % of control
[8]
  T/C: 112 % of control

## Nc1ncnc2c1ncn2C1OC(CCC(=O)NCCc2c[nH]c3ccccc23)C(O)C1O (stereo not given)
endpoint: median survival time, dose: 10.63 mg/kg/injection, schedule: Q01DX005 (ip), vehicle: distilled water + Tween-80
  T/C: 101 % of control
endpoint: median survival time, dose: 21.25 mg/kg/injection, schedule: Q01DX005 (ip), vehicle: distilled water + Tween-80
  T/C: 102 % of control
endpoint: median survival time, dose: 42.5 mg/kg/injection, schedule: Q01DX005 (ip), vehicle: distilled water + Tween-80
  T/C: 97 % of control
endpoint: median survival time, dose: 85.0 mg/kg/injection, schedule: Q01DX005 (ip), vehicle: distilled water + Tween-80
  T/C: 96 % of control
endpoint: median survival time, dose: 170.0 mg/kg/injection, schedule: Q01DX005 (ip), vehicle: distilled water + Tween-80
  T/C: 101 % of control

## O=c1sc(N=Nc2ccccc2)nn1-c1ccccc1
[4]
  T/C: 92 % of control
[5]
  T/C: 91 % of control

## O=CC(O)C(O)C(O)C(O)C(=O)O.[NH-]CC1CCCCC1[NH-].[Pt+2] (stereo not given)
endpoint: mean survival time, dose: 1.88 mg/kg/injection, schedule: Q04DX003 (ip), vehicle: saline
  T/C: 118 % of control
endpoint: mean survival time, dose: 7.5 mg/kg/injection, schedule: Q04DX003 (ip), vehicle: saline
  T/C: 156 % of control
endpoint: mean survival time, dose: 15.0 mg/kg/injection, schedule: Q04DX003 (ip), vehicle: saline
  T/C: 166 % of control and 253 % of control
endpoint: mean survival time, dose: 30.0 mg/kg/injection, schedule: Q04DX003 (ip), vehicle: saline
  T/C: 151 % of control
